In patent US20070173527A1, “HISTONE DEACETYLASE INHIBITORS” (priority 2006, published 2007):

Target: HDAC2 (Homo sapiens, UniProt Q92769)
Assay: HDAC2 fluorescence inhibition assay (tBoc-Lys(Ac)-AMC)

HDAC2, sequence (Q92769 whole entry): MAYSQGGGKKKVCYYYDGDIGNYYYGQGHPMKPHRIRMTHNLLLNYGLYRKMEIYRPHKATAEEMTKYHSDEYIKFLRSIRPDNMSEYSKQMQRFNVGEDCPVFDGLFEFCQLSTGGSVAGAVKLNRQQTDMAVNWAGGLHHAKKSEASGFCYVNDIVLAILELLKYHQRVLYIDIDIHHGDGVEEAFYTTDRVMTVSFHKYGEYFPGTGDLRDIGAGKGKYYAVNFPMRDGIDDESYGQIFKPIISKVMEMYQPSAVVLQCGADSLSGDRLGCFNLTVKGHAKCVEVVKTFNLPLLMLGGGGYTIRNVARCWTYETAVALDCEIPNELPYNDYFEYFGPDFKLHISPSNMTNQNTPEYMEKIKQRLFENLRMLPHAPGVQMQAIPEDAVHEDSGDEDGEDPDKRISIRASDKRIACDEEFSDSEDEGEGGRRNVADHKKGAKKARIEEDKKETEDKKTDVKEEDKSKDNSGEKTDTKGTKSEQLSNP

| SMILES | IC50 [nM] |
| --- | --- |
| Nc1ccccc1NC(=O)c1ccc(C[S+]([O-])c2nc3ccccc3[nH]2)cc1 (centres unmarked) [Example 5, 4-((1H-benzo[d]imidazol-2-ylsulfinyl)methyl)-N-(2-aminophenyl)benzamide] | 100 to 1000 |
| Nc1ccccc1NC(=O)c1ccc(CSc2nc3cccnc3[nH]2)cc1 [Example 9, 4-((3H-imidazo[4,5-b]pyridin-2-ylthio)methyl)-N-(2-aminophenyl)benzamide] | < 100 |
| Nc1ccccc1NC(=O)c1ccc(COc2nc3cccnc3[nH]2)cc1 [Example 4, 4-((3H-imidazo[4,5-b]pyridin-2-yloxy)methyl)-N-(2-aminophenyl)benzamide] | 100 to 1000 |
| Nc1ccccc1NC(=O)c1ccc(COc2nc3ccncc3[nH]2)cc1 [Example 11, 4-((3H-imidazo[4,5-c]pyridin-2-yloxy)methyl)-N-(2-aminophenyl)benzamide] | 100 to 1000 |
| Nc1ccccc1NC(=O)c1ccc(CSc2nc3ccncc3[nH]2)cc1 [Example 10, 4-((3H-imidazo[4,5-c]pyridin-2-ylthio)methyl)-N-(2-aminophenyl)benzamide] | < 100 |
| Nc1ccccc1NC(=O)c1ccc(CS(=O)(=O)c2nc3ccccc3[nH]2)cc1 [Example 6, 4-((1H-benzo[d]imidazol-2-ylsulfonyl)methyl)-N-(2-aminophenyl)benzamide] | 100 to 1000 |
| Nc1ccccc1NC(=O)c1ccc(COc2nc3cccnc3[nH]2)s1 [Example 12, 5-((3H-imidazo[4,5-b]pyridin-2-yloxy)methyl)-N-(2-aminophenyl)thiophene-2-carboxamide] | > 1000 |

More lines, now with the values ahead:

| IC50 [nM] | SMILES |
| --- | --- |
| < 100 | CC(C)n1c(SCc2ccc(C(=O)Nc3ccccc3N)cc2)nc2ccccc21 [Example 7, N-(2-aminophenyl)-4-((1-isopropyl-1H-benzo[d]imidazol-2-ylthio)methyl)benzamide] |
| 100 to 1000 | Nc1ccccc1NC(=O)c1ccc(CSc2nc3ccccc3n2C2CCCCC2)cc1 [Example 8, N-(2-aminophenyl)-4-((1-cyclohexyl-1H-benzo[d]imidazol-2-ylthio)methyl)benzamide] |
| 100 to 1000 | Nc1ccccc1NC(=O)c1ccc(CSc2nc3ccccc3[nH]2)cc1 [Example 3, 4-((1H-benzo[d]imidazol-2-ylthio)methyl)-N-(2-aminophenyl)benzamide] |
| < 100 | Nc1ccccc1NC(=O)c1ccc(CNc2nc3ccccc3[nH]2)cc1 [Example 2, 4-((1H-benzo[d]imidazol-2-ylamino)methyl)-N-(2-aminophenyl)benzamide] |
